Measurements taken from patent US5843941A, “Ras farnesyl transferase inhibitors” (Genentech, Inc., priority 1994, dated 1998).

Columns and labels:
[1] = tested on: Ras proteins in Met18b-2 cells; assay: Incorporation of [3H]mevalonate into immunoprecipitated Ras proteins in Met18b-2 cells; assay type: cell-based, Chinese hamster; conditions: FIG. 5
Protocol: In each experiment, aliquots of the Triton X-100 fraction (300 μg protein, prepared as described above) were incubated with 1 μg anti-Ras monoclonal antibody (Oncogene Sciences, Inc.) overnight at 4° C. on a rotating platform. Immune complexes were precipitated by addition of 25 μl Protein A-agarose suspension that had been pre-coated with goat anti-rat IgG (Oncogene Sciences, Inc.) according to the manufacturer's instructions. After a 30 min incubation at 4° C., the agarose beads were pelleted by centrifugation and washed 5 times with 1 ml each of wash solution (50 mM Tris-HCl, 50 mM NaCl, 0.5% (w/v) deoxycholate, 0.5% (v/v) Nonidet P-40, and 0.1% (w/v) SDS at pH 7.5). 75 μl of 1X SDS sample buffer was added and each sample heated for 5 min at 95° C. before electrophoresis as above.

[2] = tested on: H-ras(Val12)-transformed rat-1 fibroblasts (rat 2.2 cells); assay: Changes in morphology of H-ras-transformed cells; assay type: cell-based; conditions: 5 days; FIG. 6A/6B
Protocol: Compound 27A (denoted as BG269A in the figure) and compound 27B (denoted as BG269B in the figure) were added at 250 μM to test whether these compounds would induce reversion to a more normal phenotype as had been previously shown with microinjection of anti-Ras antibodies (see Feramisco, J. R. et al Nature 314, 639 (1985)). The H-ras transformed cells, denoted as rat 2.2 cells, were generated by transfection of rat-1 fibroblasts as described (see Seeburg, P. H., Colby, W. W., Capon, D. J., Goeddel, D. V., and Levinson, A. D. Nature 312,71 (1984)). Cells that overgrew the monolayer were extracted and plated onto agar to obtain a cell line displaying a fully transformed phenotype. Untransformed rat-1 fibroblasts and src-transformed rat-1 fibroblasts were also treated. The src-transformed cells were generated by co-transfection of rat-1 fibroblasts with pSV3.Neo.src, a vector containing the gene for src as well as the gene that confers G418 resistance, both under control of SV40 early promoters. G418-resistant cell clones that diplayed a transformed phenotype were used to generate the cell line. On day 0, cells were plated in monolayer culture at 3×10^3 cells per well (24-well plates) in 1 ml DMEM supplemented with 10% FCS, 100 U/ml penicillin, 10 μg/ml streptomycin, 2% DMSO, and 0.5 mM DTT with and without 200 μM inhibitor. On day 3, the cells were refed with the same medium. On day 5, the cells were photographed under contrast at a magnification of 100X. […] This change in morphology is remarkably similar to that seen following injection of anti-ras antibodies into ras-transformed cells (see Feramisco, J. R. et al Nature 314, 639 (1985)). Rat-1 fibroblasts transformed with the src oncogene also grew in a multilayered pattern (FIG. 6C), but this was not affected by compound 27A or compound 27B (FIG. 6D).

[3] = tested on: src-transformed rat-1 fibroblasts; assay: Changes in morphology of src-transformed cells; assay type: cell-based; conditions: FIG. 6C/6D
Protocol: (§1) Compound 27A (denoted as BG269A in the figure) and compound 27B (denoted as BG269B in the figure) were added at 250 μM to test whether these compounds would induce reversion to a more normal phenotype as had been previously shown with microinjection of anti-Ras antibodies (see Feramisco, J. R. et al Nature 314, 639 (1985)). The H-ras transformed cells, denoted as rat 2.2 cells, were generated by transfection of rat-1 fibroblasts as described (see Seeburg, P. H., Colby, W. W., Capon, D. J., Goeddel, D. V., and Levinson, A. D. Nature 312,71 (1984)). Cells that overgrew the monolayer were extracted and plated onto agar to obtain a cell line displaying a fully transformed phenotype. Untransformed rat-1 fibroblasts and src-transformed rat-1 fibroblasts were also treated. The src-transformed cells were generated by co-transfection of rat-1 fibroblasts with pSV3.Neo.src, a vector containing the gene for src as well as the gene that confers G418 resistance, both under control of SV40 early promoters. G418-resistant cell clones that diplayed a transformed phenotype were used to generate the cell line. On day 0, cells were plated in monolayer culture at 3×10^3 cells per well (24-well plates) in 1 ml DMEM supplemented with 10% FCS, 100 U/ml penicillin, 10 μg/ml streptomycin, 2% DMSO, and 0.5 mM DTT with and without 200 μM inhibitor. On day 3, the cells were refed with the same medium. […]

[4] = tested on: untransformed rat-1 fibroblasts; assay: Changes in morphology of untransformed cells; assay type: cell-based; conditions: FIG. 6E and F
Protocol: as §1

CAAX GG transferase = molecular target: T1, CAAX GG transferase (Rattus norvegicus, UniProt P53610+Q04631); assay: Inhibition of CAAX GG transferase (geranylgeranyltransferase); assay type: biochemical; conditions: 31B (leucine) vs 27B (methionine); FIG. 2B
T1 construct: partially purified CAAX GG transferase; from tissue
T1 sequence (P53610 whole entry, one chain of several): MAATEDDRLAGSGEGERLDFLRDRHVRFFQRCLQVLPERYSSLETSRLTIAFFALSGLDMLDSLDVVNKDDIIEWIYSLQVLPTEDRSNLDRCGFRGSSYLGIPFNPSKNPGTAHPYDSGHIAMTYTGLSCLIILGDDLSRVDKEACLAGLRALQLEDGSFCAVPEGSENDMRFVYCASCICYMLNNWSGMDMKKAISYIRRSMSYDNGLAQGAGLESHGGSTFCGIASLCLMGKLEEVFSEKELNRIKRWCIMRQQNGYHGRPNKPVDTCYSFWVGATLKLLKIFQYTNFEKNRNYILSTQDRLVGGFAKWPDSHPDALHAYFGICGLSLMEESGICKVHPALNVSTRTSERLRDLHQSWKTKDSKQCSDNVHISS
Text: FIG. 1 compares the inhibitory activity of compound 27B (denoted as BG269B in the figure) on protein prenyltransferases. […] Two other prenyltransferases, both of which transfer 20-carbon geranylgeranyl (GG) groups, have been identified in rat brain. One of thesse, CAAX GG transferase, attaches GG groups to proteins that terminate in CAAX sequences in which X is leucine.
The conditions used to assay the inhibition of CAAX farnesyltransferase are identical to those described above for the in vitro, assay described in Example 121. In FIG. 1B the assay mixture contained, in a final volume of 50 μl, 50 mM sodium Hepes (pH 7.2), 5 mM MgC12, 5 mM DTT, 0.3 mM Nonidet P-40, 0.2% octyl β-glucoside, 1% DMSO, 0.5 μM all trans [3H]geranylgeranyl pyrophosphate (33,000 dpm/pmol; ARC, Inc.), 5 μM recombinant p21^H-rasCVLL, 6.3 μg partially purified CAAX GG transferase (see Seabra, M. C., Reiss, Y., Casey, P. J., Brown, M. S., and Goldstein, J. L. Cell 268, 4055 (1993)) and varying concentrations of the indicated inhibitor. In FIG. 1C, the assay mixture contained in a final volume of 50 μl, 50 mM sodium Hepes (pH 7.2), 5 mM MgCl2, 5 mM DTT, 0.3 mM Nonidet P-40, 0.2% octyl β-D-glucoside, 1% DMSO, 0.5 μM all trans [3H]geranylgeranyl pyrophosphate (33,000 dpm/pmol; ARC, Inc.), 2 μM recombinant Rab1A, 2 ng each of purified Components A and B of Rab GG transferase (see Seabra, M. C., Goldstein, J. L., Sudhof, T. C., and Brown, M. S. J. Biol. Chem. 267, 14497 (1992)) and varying concentrations of the indicated inhibitor.
Each assay was carried out as described in Examples 121 and 122.

[5] = tested on: farnesylated proteins F1, F2 and F3 in Met18b-2 cells; assay: Inhibition of intracellular farnesylation in intact Met18b-2 cells, Triton-soluble proteins F1, F2, F3; assay type: cell-based, Chinese hamster; conditions: 250 μM; FIG. 3
Text: (§2) To study farnesylation in intact cells we used Met18b-2 cells, a line of Chinese hamster ovary (CHO) cells that takes up [3H]mevalonate efficiently (see Faust, J., and Krieger, M. J. Biol. Chem. 262, 1966 (1987)) owing to the production of a mevalonate transport protein (see Kim, C. M., Goldstein, J. L., Brown, M. S. J. Biol. Chem. 267, 23113 (1992)). The [3H]mevalonate is converted by the cells into [3H]farnesyl pyrophosphate and [3H]geranylgeranyl pyrophosphate, which are then attached to proteins (Kim, C. M., Goldstein, J. L., Brown, M. S. J. Biol. Chem. 267, 23113 (1992)). In the assay, stock cultures of Met18b-2 cells were seeded at a density of 3-105 cells per 60 mm dish in 3 ml of medium A (Dulbecco's modified Eagle medium/Ham's F12 medium (1:1, v/v) containing 100 U/ml penicillin and 100 μg/ml streptomycin) supplemented with 5% (v/v) fetal calf serum (FCS). On day 3, each monolayer was refed with 1 ml medium A supplemented with 1% FCS (dialyzed against 0.15 M NaCl). At this point the cells were treated with 100 μM compactin (see Brown, M. S., Faust, J. R., Goldstein, J. L., Kaneko, I., and Endo, A. J. Biol. Chem. 253, 1121 (1978)) which blocks the synthesis of unlabeled mevalonate within the cells. Each compound was dissolved at 25 mM in DMSO/10 mM DTT immediately before use and 10 μl of this solution added directly. After 2 hr incubation at 37° C., each monolayer received 100 μCi [3H]mevalonate (60 Ci/mmol, American Radiolabeled Chemicals, Inc.) added in 100 μl of the medium A, and the incubation continued for 4 hr. The cells were harvested by rinsing three times with 3 ml of 50 mM Tris-HCl/0.15 M NaCl (pH 7.5). 300 μl of lysis buffer (0.5X Dulbecco's phosphate-buffered saline containing 1% Triton X-100, 5 μg/ml leupeptin, 5 μg/ml pepstatin, 0.5 mM phenylmethylsulfonyl fluoride, and 0.05 U/ml aprotinin) was added to each monolayer. After incubation on ice for 5 mon, the lysates were centrifuged 30 sec in a microfuge at 12,000 g. The resulting supernatant was tranferred to a new tube, and each pellet was resuspended in 60 μl of lysis buffer. Protein concentrations were determined using the BCA protein assay reagent (Pierce) according to the manufacturer's instructions. Detergent-soluble (supernatant) and -insoluble (pellet) samples were mixed with 2X SDS sample buffer (see Laemmli, U. K. Nature 227, 680 (1970)) and heated at 95° C. for 5 min before electrophoresis. Each lane contained 90 μg protein, and was run on a 12.5% SDS-polyacrylamide gel. The gel was dried, treated with ENTENSIFY (NEN-DuPont), and exposed to Kodak XOMAT-AR film for 9 h at -80° C. to allow visualization of all prenylated proteins. Migration of [14C]methylated molecular weight standards (Amersham) were used as markers.
The results of this assay are shown in FIG. 3, using a final concentration of 250 μM for each inhibitor. […] As shown in the figure, none of the control peptides or control benzodiazepine-peptideomimetics altered the prenylation of proteins in intact cells.
Using the same cells and procedures followed above for Example 125, we measured the dose dependence upon the inhibition of farnesylation in intact cells. […] Compound 37B inhibited the famesylation of F1-3 detectably at 10 μM, and almost completely at 25 μM.
In this manner, it is possible to obtain data regarding the comparative potency of these inhibitors upon the level of intracellular farnesylation. We have chosen to report the EC90% values for these inhibitors as the concentration required for a reduction in the Triton- soluble labelling (denoted F-1, F-2, and F-3) to 90% of control cells (untreated).

[6] = tested on: nuclear lamins A and B in Met18b-2 cells; assay: [3H]mevalonate labeling of farnesylated nuclear lamins in Met18b-2 cells; assay type: cell-based, Chinese hamster; conditions: 250 μM; FIG. 3
Text: To study farnesylation in intact cells we used Met18b-2 cells, a line of Chinese hamster ovary (CHO) cells that takes up [3H]mevalonate efficiently (see Faust, J., and Krieger, M. J. Biol. Chem. 262, 1966 (1987)) owing to the production of a mevalonate transport protein (see Kim, C. M., Goldstein, J. L., Brown, M. S. J. Biol. Chem. 267, 23113 (1992)). The [3H]mevalonate is converted by the cells into [3H]farnesyl pyrophosphate and [3H]geranylgeranyl pyrophosphate, which are then attached to proteins (Kim, C. M., Goldstein, J. L., Brown, M. S. J. Biol. Chem. 267, 23113 (1992)). In the assay, stock cultures of Met18b-2 cells were seeded at a density of 3-105 cells per 60 mm dish in 3 ml of medium A (Dulbecco's modified Eagle medium/Ham's F12 medium (1:1, v/v) containing 100 U/ml penicillin and 100 μg/ml streptomycin) supplemented with 5% (v/v) fetal calf serum (FCS). On day 3, each monolayer was refed with 1 ml medium A supplemented with 1% FCS (dialyzed against 0.15 M NaCl). At this point the cells were treated with 100 μM compactin (see Brown, M. S., Faust, J. R., Goldstein, J. L., Kaneko, I., and Endo, A. J. Biol. Chem. 253, 1121 (1978)) which blocks the synthesis of unlabeled mevalonate within the cells. […] Protein concentrations were determined using the BCA protein assay reagent (Pierce) according to the manufacturer's instructions. […]

[7] = tested on: low molecular weight GTP binding proteins (SMG) in Met18b-2 cells; assay: [3H]mevalonate labeling of low molecular weight GTP binding proteins (SMG) in Met18b-2 cells; assay type: cell-based, Chinese hamster; conditions: 250 μM; FIG. 3
Text: as §2, with “The resulting supernatant was tranferred to a new tube, and each pellet was resuspended in 60 μl of lysis buffer.” left out, “Detergent-soluble (supernatant) and -insoluble (pellet) samples were mixed with 2X SDS sample buffer (see Laemmli, U. K. Nature 227, 680 (1970)) and heated at 95° C. for 5 min before electrophoresis. Each lane contained 90 μg protein, and was run on a 12.5% SDS-polyacrylamide gel. The gel was dried, treated with ENTENSIFY (NEN-DuPont), and exposed to Kodak XOMAT-AR film for 9 h at -80° C. to allow visualization of all prenylated proteins. Migration of [14C]methylated molecular weight standards (Amersham) were used as markers.” left out

Structure (SMILES)	effect of control molecules on [3H]mevalonate incorporation [1]	effect on transformed phenotype (morphology) [2]	effect on morphology of src-transformed cells [3]	effect on morphology of untransformed cells [4]	fold more sensitivity of CAAX geranylgeranyltransferase to leucine-terminated inhibitor (CAAX GG transferase) [fold]	labeling of Triton-soluble farnesylated proteins (F1 to F3) [5]	labeling of farnesylated lamins (F-NL) [6]	effect on low molecular weight GTP binding proteins (SMG) [7]
CSCC[C@H](NC(=O)CN1C(=O)C(N(C)C(=O)[C@@H](N)CS)N=C(c2ccccc2)c2ccccc21)C(=O)O (single isomer, unassigned) [27A]	had no effect	had no effect	not affected	no apparent effect on the morphology of untransformed rat-1 fibroblasts				
CC(C)C[C@H](NC(=O)CN1C(=O)C(N(C)C(=O)[C@@H](N)CS)N=C(c2ccccc2)c2ccccc21)C(=O)O (single isomer, unassigned) [31B, N-[[3-[(2-amino-3-mercapto-1-oxopropyl)methylamino]-2,3-dihydro-2-oxo-5-phenyl-1H -1,4-benzodiazepin-1-yl]acetyl]-L-leucine]					5	markedly decreased the labeling of all three Triton-soluble farnesylated proteins (F1 to F3)	reduced moderately the labeling of the farnesylated lamins	little effect on the low molecular weight GTP binding proteins
